Experimental findings from patent US11524956B2, “Alkyne substituted quinazoline compound and methods of use” (Newgen Therapeutics, Inc., priority 2011, dated 2022) are described below.

Like-named read-outs stand apart in the source and are kept apart here.

The target in one data set is EGFR kinase (Homo sapiens (Human), UniProt P00533). As to the kind of experiment: Kinase assay for EGFR (TR-FRET, LanthaScreen). Particulars: read-out: Kinase inhibition IC50 (nM) EGFR. Format: biochemical. On the procedure: The extent to which the compounds of the present invention modulate EGFR kinase activity can be determined using time-resolved Fret (TR-FRET) assay (LanthaScreen® kinase activity assay, from InVitrogen). The assay employs EGFR kinase (PV3872, Invitrogen), Tb-Py20 antibody (PV3552, InVitrogen) and fluorescein-poly GT (PV3610, InVitrogen).
Sequence of EGFR kinase (P00533 668-1210): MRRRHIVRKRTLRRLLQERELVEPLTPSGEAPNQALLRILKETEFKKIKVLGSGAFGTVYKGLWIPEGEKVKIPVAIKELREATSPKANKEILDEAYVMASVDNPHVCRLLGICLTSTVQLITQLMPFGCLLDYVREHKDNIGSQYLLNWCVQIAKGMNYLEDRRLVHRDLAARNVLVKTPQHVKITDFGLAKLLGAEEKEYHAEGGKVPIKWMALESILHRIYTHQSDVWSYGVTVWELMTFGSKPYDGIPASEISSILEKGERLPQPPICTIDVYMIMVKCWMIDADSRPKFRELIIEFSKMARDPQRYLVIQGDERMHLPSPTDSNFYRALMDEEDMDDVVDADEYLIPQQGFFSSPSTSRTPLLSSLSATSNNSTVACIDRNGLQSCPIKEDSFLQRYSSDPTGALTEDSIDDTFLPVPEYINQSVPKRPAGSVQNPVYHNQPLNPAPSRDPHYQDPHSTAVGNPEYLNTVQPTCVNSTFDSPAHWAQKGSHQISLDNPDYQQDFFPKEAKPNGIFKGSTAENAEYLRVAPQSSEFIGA
The assay is performed in a Black 384-well plate (available from Corning). EGFR kinase (is diluted in TR-FRET Dilution Buffer (PV3189, InVitrogen) at concentration of 0.4 ug/ml as stock solution, and then 2-fold serial diluted. Addition of 1 mM ATP initiated the reaction, and the reaction is incubated for […] at room temperature. 10 μL of the Tb-antibody (from InVitrogen)+EDTA (from InVitrogen) solution prepared was added to each well of the assay plate and mix briefly, and incubated for 30 min. The signal is monitored by using M5 microplate reader (Ex=332 nm, Em=488 nm and 518 nm). Each compound is tested in duplicate wells. EGFR without compound is used as control. Staurosporine (available from Sigma) is used as positive control compound. Inhibition was calculated as percentage of the EGFR activity (without compound).
(In TR-FRET formats the signal depends on donor and acceptor labels being close together.)

The subject of the next data set is BT474 cells. Briefly: Cell proliferation inhibition assay for BT474 (CCK-8). Format: cell-based. The settings on record: Homo sapiens, BT-474; 72h. On the procedure: Human breast cancer BT474 cells was cultured in low glucose DMEM (Life Technologies 12320-032) containing 10% fetal bovine serum (FBS) at 37° C. in a humidified 10% CO2, 90% air incubator. Cells were harvested using trypsin EDTA, counted using a haemocytometer, and plated 10000 cell/well in a 96-well clear tissue culture plate. The cells were incubated for 24 h at 37° C. to allow adherence. A serials of concentrations of each compound (ranging from 30 um to 0.16 nM, 5-fold dilution) in 96-well plate, and incubated for 72h. Each concentration was tested in triplicate wells. During the cell proliferation assay, BT474 cells were cultured in low-glucose DMEM containing 5% FBS, 50 ug/ml gentamicin, and 0.3% v/v DMSO. The culture medium was removed via aspiration, and the cell viability was detected by using CCK-8 cell proliferation kit. The IC50 value measured for each compound in Examples 1 to 7 is <100 nM.

For another data set, the system named is NCI-H1975 cells. Briefly: Anti-proliferation assay of NCI-H1975 cells (CCK-8). Format: cell-based. The settings on record: Homo sapiens, NCI-H1975, 72 h, 3 days. On the procedure: The anti-proliferative assays were performed in triplicates. 3000 cell/well of N1975 cells were seeded in 96-well plate (medium: RPMI 1640, 5% FBS. 2 mM L-Glutamine). After 24 h, removal the medium in the plate was followed by the addition of compound of serial dilution in medium to the wells. After 3 days, the cells were treated with CCK-8 kit and incubated for additional 4 hours at 37° C. The plate was read at 450 nm. The log of the fractional growth inhibition was plotted against the log of the drug concentration, and the IC50 values were interpolated from the resulting linear regression curve fit. The IC50 value measured for Compound NT113 is <1000 nM.

For the next data set, the system named is NCI-N87 xenograft. As to the kind of experiment: In vivo efficacy in NCI-N87 xenograft mouse model. Particulars: for RTV T/C / tumor growth inhibition: day-7 after treatment. The protocol: NCI-N87 cell line was purchased from ATCC (American Type Culture Collection) and was cultured in RPMI1640+10% FBS+1% P/S antibiotics.
Male Balb/c nude mice, 6-8 week, 18±2 g (supplier: Shanghai SLAC Laboratory Animal Co. Ltd.) were used for the experiment. The purchased mice were adapted to the environment for 7 days before use, and were housed at 22-25° C. with humidity 40-70%, and light cycle with fluorescent light for 12-hour light (8:00-20:00) 12-hour dark. The mice have free access to food and water.
The cancer cells (NCI-N87) were implanted subcutaneous into the nude mice (right flank) with 5.0×10^6 cells in 0.1 ml PBS (50 mice). When the tumor size reaches a volume of 200 (150-200) mm^3, the tumor-bearing nude mice were randomly assigned into groups (10 mice/group), one group was served as vehicle, one group was administrated with Lapatinib ditosylate monohydrate (80 mg/kg, free base of Lapatinib, not salt, p.o. […]). The other two groups were administrated with NT113 (also referred to as KID 113) ((15 and 30 mg/kg, p.o.q.d, respectively). The administration period lasted for 4 weeks.
The mice were monitored twice daily for appearance and behavior, and for signs of morbidity and/or mortality. The tumor volume was measured twice a week, and the body weight was measured immediately before measuring the tumor volume throughout the whole study.
At end of the experiment (compound administration for four weeks), all the tumor-bearing mice were sacrificed by cervical dislocation under deep anesthesia. The tumor mass was resected, and weighed.
Tumor sizes were measured twice weekly in two dimensions using a caliper, and the volume was expressed in mm^3 using the formula: V=½×a×b^2 where a and b are the long and short diameters of the tumor, respectively. The tumor mass was weighed at the end of the experiment after harvested.
V=½×a×b^2 (a, h is maximum and minimum diameters respectively).
RTV (Relative Tumor Volume)=Vt/Vo • Vo is the tumor volume when the test article is initial administrated • Vt is the tumor volume of every measurement day after test article administration
T/C (%)=TRTV/CRTV×100% • TRTV: RTV of test article-treatment group; CRTV: RTV of control group Inhibition rate (%)=(average tumor volume of control group average cancer volume of test article treatment group)/average tumor volume of control group×100%
The tumor-bearing mice were treated for 4 weeks with different doses of KU (15 mg/kg, 30 mg/kg, […]), qd) and Lapatinib KUA-1, 80 mg/kg, p.o., bid, 7 days/week. At the day-7 after treatment, the RTV TIC KU113 (15 mg/kg, 30 mg/kg) groups were <30%, and the tumor growth inhibition was >70%. but the RTV TIC was 31% and tumor growth inhibition rat was 69% in the lapatinib group. The same result was observed as well when it comes to the tumor weight. On day 28 after treatment, all the tumor-bearing mice were sacrificed, and all the tumor masses were harvested to weigh.

As for `CN(C)C/C=C/C(=O)Nc1cc2c(Nc3ccc(F)c(Cl)c3)ncnc2cc1C#C[C@@H]1[C@H]2COC[C@@H]12` [Example 4, (E)-N-(4-(3-chloro-4-fluorophenylamino)-7-(2-((1R,5S,6s)-3-oxa-bicyclo[3.1.0]hexan-6-yl)ethynyl)quinazolin-6-yl)-4-(dimethylamino)but-2-enamide], the IC50 at EGFR kinase is under 100 nM; in the data set on BT474 cells it was under 100 nM; in the data set with NCI-H1975 cells (read-out: Cell Proliferation Inhibition IC50 (nM) NCI-H1975), 100 to 1000 nM; in the data set on NCI-H1975 cells (read-out: IC50 NCI-H1975 anti-proliferation), under 1000 nM. Moreover, the “tolerability (side effect)” value in the data set with NCI-N87 xenograft (15 mg/kg, po, qd) is reported as “without predefined side effect”. For the same molecule, in the data set on NCI-N87 xenograft (30 mg/kg group, by day 28), the “body weight after dosing was stopped” value was “recovered to normal”. For the same molecule, the body weight effect result in the data set with NCI-N87 xenograft (30 mg/kg, p.o., qd, 7 days/week) is “body weight loss”. The “RTV T/C” value in the data set with NCI-N87 xenograft (15 mg/kg po qd) and with NCI-N87 xenograft (30 mg/kg po qd) was under 30% in each case. In addition, the tumor growth inhibition in the data set on NCI-N87 xenograft (15 mg/kg po qd) and in the data set on NCI-N87 xenograft (30 mg/kg po qd) was over 70% in each case.
